This passage reports Activity and viability results from ChEMBL document CHEMBL3627696, “Pontemazines A and B, phenazine derivatives containing a methylamine linkage from Streptomyces sp. UT1123 and their protective effect to HT-22 neuronal cells” (2015).

Activity calls are given as the source filed them. The calls are words filed in the database; no cut-off is given here.

In test [1] the test system is HT-22. The test is described as follows: Neuroprotective activity against monosodium glutamate-induced cell death in mouse HT22 cells at 10 uM preincubated for 2 hrs followed by monosodium glutamate addition measured after 24 hrs by phase contrast microscopic analysis. Type of test: functional, cell-based.
The test system of test [2] is HT-22. The experiment in a line: Neuroprotective activity against monosodium glutamate-induced cell death in mouse HT22 cells assessed as cell viability at 10 uM preincubated for 2 hrs followed by monosodium glutamate addition measured after 24 hrs by MTT assay (reference value: 50%). Format: functional. The note with it: read-out: Activity. Background: Tetrazolium assays rely on reduction of a dye to a coloured formazan, in cell work by metabolically active cells.

For test [3], the system named is HT-22. The experiment in a line: Neuroprotective activity against monosodium glutamate-induced cell death in mouse HT22 cells at 5 uM preincubated for 2 hrs followed by monosodium glutamate addition measured after 24 hrs by phase contrast microscopic analysis. Format: functional, cell-based.
The test system of test [4] is HT-22. The test is described as follows: Neuroprotective activity against monosodium glutamate-induced cell death in mouse HT22 cells assessed as cell viability at 25 to 50 uM preincubated for 2 hrs followed by monosodium glutamate addition measured after 24 hrs by MTT assay (reference value: 50%). Format: functional.

For `COc1ccc(CNc2ccccc2C(N)=O)c2nc3cccc(C(N)=O)c3nc12`, in the test with HT-22 [1], the result was Active. Besides, the viability at 10 µM in the test on HT-22 [2] worked out at 90%. For the same compound, the outcome with HT-22 [3] was inactive.
For `COc1ccc(CNc2ccccc2C(N)=O)c2nc3cccc(C(=O)O)c3nc12`, the result with HT-22 [1] was Active. In addition, in the test with HT-22 [2], the viability at 10 µM amounted to 90%. Further, in the test with HT-22 [3], the outcome was inactive. Further, the Activity in the test with HT-22 [4] is over 90%.
